The text below walks through data of the NIST ThermoML archive (doi:10.1016/j.jct.2017.01.011).

± gives the expanded uncertainty stated by the source.

Data set [1] can be described thus: xn = mol fraction of the nth substance listed. Conditions: 100 kPa, Liquid, x1 = 1; for speed of sound: Frequency=3 MHz, Single path-length method; for mass density: Vibrating tube method.
For data set [2] the following is noted: 100 kPa, Liquid; for speed of sound: Frequency=3 MHz, Single path-length method; for mass density: Vibrating tube method.

By speed of sound is commonly meant how fast a sound wave travels through the sample. In general, mass density refers to mass per unit of volume. For `CO` [methanol] + OCC(O)CO, the speed of sound came to 1153.3 ± 4.1 m/s in data set [1] (283.15 K), 1119.6 ± 4.1 m/s in data set [1] (293.15 K), 1086.6 ± 4.1 m/s in data set [1] (303.15 K) and 1054.2 ± 4.1 m/s in data set [1] (313.15 K). Further, the mass density in data set [1] (283.15 K) was 801 ± 1 kg/m3; in data set [1] (293.15 K), 791 ± 1 kg/m3; in data set [1] (303.15 K) it was 782 ± 1 kg/m3; in data set [1] (313.15 K), 772 ± 1 kg/m3.
As for `OCC(O)CO` [glycerol], the speed of sound in data set [2] (283.15 K) was found to be 1942.3 ± 6.1 m/s; in data set [2] (293.15 K), 1922.9 ± 6.1 m/s; in data set [2] (303.15 K), 1901 ± 6.1 m/s; in data set [2] (313.15 K) it was 1879.3 ± 6.1 m/s. In addition, the mass density in data set [2] (283.15 K) turned out to be 1267 ± 1 kg/m3; in data set [2] (293.15 K), 1261 ± 1 kg/m3; in data set [2] (303.15 K), 1255 ± 1 kg/m3; in data set [2] (313.15 K) it was 1248 ± 1 kg/m3.
For the molecule `CCO` [ethanol] + OCC(O)CO, the speed of sound in data set [1] (283.15 K) came out at 1196.8 ± 4.1 m/s; in data set [1] (293.15 K), 1162.3 ± 4.1 m/s; in data set [1] (303.15 K) it was 1128.2 ± 4.1 m/s; in data set [1] (313.15 K), 1094.5 ± 4.1 m/s. Also, the mass density came out at 798 ± 1 kg/m3 in data set [1] (283.15 K), 790 ± 1 kg/m3 in data set [1] (293.15 K), 781 ± 1 kg/m3 in data set [1] (303.15 K) and 772 ± 1 kg/m3 in data set [1] (313.15 K).
